Measurements from patent US12441768B2, “Compositions and methods for treating endometriosis” (EndoMet Biosciences, Inc., priority 2018, dated 2025).
Where a SMILES comes first, the peptide text is derived from it.

Legend:
[1] = molecular target: Wnt-responsive promoter (TCF/LEF); test: Wnt-dependent luciferase reporter assay; type: cell-based, murine
Outline: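 EC50 (uM) derived from inhibition of luminescence in Wnt3a-stimulated murine 3T3 cells expressing luciferase under a TCF/LEF promoter, with peptides added across a concentration range and vehicle as control.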

[2] = molecular target: T1, β-catenin (Homo sapiens, UniProt P35222); test: KD50 measurement using competitive fluorescence polarization (FP) with labelled TCF4; type: binding; details: fluorescence polarization, β-catenin; for Kd: read-out: β-Cat FP KD
T1 sequence (P35222 1-781): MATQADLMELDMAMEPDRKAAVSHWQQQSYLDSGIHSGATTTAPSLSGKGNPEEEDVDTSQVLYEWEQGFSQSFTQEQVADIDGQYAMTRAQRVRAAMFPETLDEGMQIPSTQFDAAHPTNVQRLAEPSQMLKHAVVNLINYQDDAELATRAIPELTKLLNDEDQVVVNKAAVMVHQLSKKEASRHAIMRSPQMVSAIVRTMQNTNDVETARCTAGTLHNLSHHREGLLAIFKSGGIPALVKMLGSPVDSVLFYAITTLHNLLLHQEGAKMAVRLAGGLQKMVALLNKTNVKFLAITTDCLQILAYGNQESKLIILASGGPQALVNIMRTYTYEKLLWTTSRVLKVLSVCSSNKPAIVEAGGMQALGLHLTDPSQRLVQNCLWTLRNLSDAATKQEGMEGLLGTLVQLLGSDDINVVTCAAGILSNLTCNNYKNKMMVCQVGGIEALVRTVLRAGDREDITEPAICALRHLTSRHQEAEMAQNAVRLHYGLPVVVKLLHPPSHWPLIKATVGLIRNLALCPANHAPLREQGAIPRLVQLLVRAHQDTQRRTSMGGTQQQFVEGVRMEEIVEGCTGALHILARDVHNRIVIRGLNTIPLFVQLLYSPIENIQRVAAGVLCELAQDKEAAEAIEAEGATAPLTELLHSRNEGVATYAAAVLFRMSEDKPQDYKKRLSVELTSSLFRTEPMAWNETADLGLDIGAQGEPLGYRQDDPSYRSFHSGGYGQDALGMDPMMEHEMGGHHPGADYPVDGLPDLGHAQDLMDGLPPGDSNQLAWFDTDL
Outline: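 Labelled TCF4 (5 nM) mixed with 100 nM β-catenin at room temperature; inhibitor added as serial dilutions from 10 nM to 30 uM. Polarization read at excitation 470 nm/emission 520 nm; binding displacement lowers polarization. Three independent runs.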

EC50 [1] | β-Cat FP Hill slope [2] | Kd [2] | SMILES
> 30 µM | 0.7 | < 0.4 µM | CC[C@H](C)[C@H](NC(=O)[C@H](CO)NC(=O)[C@H](CCC(=O)O)NC(=O)[C@@H]1CCCN1C(=O)[C@H](CC(C)C)NC(=O)[C@H](CCCNC(=N)N)NC(=O)CCNC(C)=O)C(=O)N[C@@H](CC(C)C)C(=O)N[C@@H](CC(=O)O)C(=O)N[C@@H](CCC(=O)O)C(=O)N[C@@H](Cc1c[nH]cn1)C(=O)N[C@H](C(=O)N[C@@H](CCC(N)=O)C(=O)N[C@@H](CCCNC(=N)N)C(=O)N[C@H](C(=O)N[C@@H](Cc1c[nH]c2ccccc12)C(=O)N1CCC[C@H]1C(N)=O)C(C)C)C(C)C [compound 413] (HELM PEPTIDE1{[ac].[bAla].R.L.P.E.S.I.L.D.E.H.V.Q.R.V.W.P.[am]}$$$$V2.0)
> 30 µM | 0.89 | < 0.4 µM | CC[C@H](C)[C@H](NC(=O)[C@H](CO)NC(=O)[C@H](CCC(=O)O)NC(=O)[C@H](Cc1c[nH]c2ccccc12)N(C)C(=O)[C@@H](N)Cc1c[nH]c2ccccc12)C(=O)N[C@@H](CC(C)C)C(=O)N[C@@H](CC(=O)O)C(=O)N[C@@H](CCC(=O)O)C(=O)N[C@@H](Cc1c[nH]cn1)C(=O)NC(C)(C(=O)N[C@@H](CCC(N)=O)C(=O)N[C@@H](CCCNC(=N)N)C(=O)N[C@H](C(=O)N[C@@H](Cc1c[nH]c2ccccc12)C(=O)NCC(N)=O)C(C)C)C(C)C (stereo partly drawn) [compound 39] (HELM PEPTIDE1{W.[meW].E.S.I.L.D.E.H.[CC(C)C(C)(N[*:1])C(=O)[*:2]].Q.R.V.W.G.[am]}$$$$V2.0)
> 30 µM | 0.89 | < 0.4 µM | CC[C@H](C)[C@@H]1NC(=O)[C@@H](NC(=O)[C@H](CCC(N)=O)NC(=O)[C@H](C)N(C)C(=O)[C@H](Cc2c[nH]c3ccccc23)NC(C)=O)CCCCNC(=O)CC[C@@H](C(=O)N[C@@H](Cc2c[nH]cn2)C(=O)N[C@H](C(=O)N[C@@H](CCC(N)=O)C(=O)N[C@@H](CCCNC(=N)N)C(=O)N[C@H](C(=O)N[C@@H](Cc2c[nH]c3ccccc23)C(=O)N[C@@H](CCCNC(=N)N)C(N)=O)C(C)C)C2CCCCC2)NC(=O)[C@H](CC(=O)O)NC(=O)[C@H](CC(C)C)NC1=O [compound 449] (HELM PEPTIDE1{[ac].W.[meA].Q.K.I.L.D.E.H.[O=C([C@@H](N[*:1])C1CCCCC1)[*:2]].Q.R.V.W.R.[am]}$PEPTIDE1,PEPTIDE1,5:R3-9:R3$$$V2.0)
> 30 µM | 0.88 | < 0.4 µM | CC[C@H](C)[C@H](NC(=O)C(C)(CO)NC(=O)[C@H](CCC(=O)O)NC(=O)[C@H](Cc1c[nH]c2ccccc12)N(C)C(=O)[C@@H](N)Cc1c[nH]c2ccccc12)C(=O)N[C@@H](CC(C)C)C(=O)N[C@@H](CC(=O)O)C(=O)N[C@@H](CCC(=O)O)C(=O)N[C@@H](Cc1c[nH]cn1)C(=O)N[C@H](C(=O)N[C@@H](CCC(N)=O)C(=O)N[C@@H](CCCNC(=N)N)C(=O)N[C@H](C(=O)N[C@@H](Cc1c[nH]c2ccccc12)C(=O)NCC(N)=O)C(C)C)C(C)C (stereo partly drawn) [compound 40] (HELM PEPTIDE1{W.[meW].E.[CC(CO)(N[*:1])C(=O)[*:2]].I.L.D.E.H.V.Q.R.V.W.G.[am]}$$$$V2.0)
> 30 µM | 0.7 | < 0.4 µM | CC[C@H](C)[C@H](NC(=O)[C@H](CO)NC(=O)[C@H](CCC(=O)O)NC(=O)[C@H](Cc1c[nH]c2ccccc12)N(C)C(=O)[C@H](Cc1c[nH]c2ccccc12)NC)C(=O)N[C@@H](CC(C)C)C(=O)N[C@@H](CC(=O)O)C(=O)N[C@@H](CCC(=O)O)C(=O)N[C@@H](Cc1c[nH]cn1)C(=O)N[C@H](C(=O)N[C@@H](CCC(N)=O)C(=O)N[C@@H](CCCNC(=N)N)C(=O)N[C@H](C(=O)N[C@@H](Cc1c[nH]c2ccccc12)C(=O)NCC(N)=O)C(C)C)C(C)C [compound 37] (HELM PEPTIDE1{[meW].[meW].E.S.I.L.D.E.H.V.Q.R.V.W.G.[am]}$$$$V2.0)
